The results in this text go back to patent publication US12577245B2, “Sulfonyl benzamide derivatives as Bcl-2 inhibitors” (ASCENTAGE PHARMA (SUZHOU) CO., LTD., priority 2021, dated 2026).

The target in one assay is Bcl-2 WT (Homo sapiens, UniProt P10415). Put plainly: Bcl-2 WT inhibition, fluorescence polarization (Flu-BIM tracer) binding assay. Conditions: FP; 20 nM Bcl2, 5 nM Flu-BIM, 1 h incubation; read-out: Bcl-2 w.t. (FP). A general note: In fluorescence polarisation assays a small probe gives low polarisation when free and higher when bound to something large.
The test system of a further assay is MV-4-11 cells. Put plainly: CCK-8 cell viability assay in MV-4-11 cells. The class given is cell-based. As to conditions: Homo sapiens, MV4-11, 72 h, 10% FBS, 3 days. In short, it runs like this:
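IC50 values come from vehicle-normalized CCK-8 absorbance at 450 nm, read 1–4 h after reagent addition. Before that, MV-4-11 cells seeded at 20000 per well were cultured 3 days at 37 °C with a compound dilution series.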
In general terms: Tetrazolium dyes change colour on reduction, which living cells bring about.

For a further assay, the system named is RS4; 11Bcl-2-G101V cells. The assay can be described thus: CellTiter-Glo (CTG) cell viability assay in RS4;11-Bcl-2-G101V cells. The class given is cell-based. Conditions: 72 h, 10% FBS, 3 days. In short, it runs like this: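 Luminescent ATP read-out (CellTiter-Glo) after 3-day compound treatment at 37 °C gave viability relative to vehicle, from which IC50 was fitted. Mutant Bcl-2 RS4;11 cells were seeded at 10000 per well and rested 4 h before dosing.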
For orientation: ATP-based viability assays read luminescence as a measure of living cells.

Bcl-2 WT, sequence (P10415 whole entry): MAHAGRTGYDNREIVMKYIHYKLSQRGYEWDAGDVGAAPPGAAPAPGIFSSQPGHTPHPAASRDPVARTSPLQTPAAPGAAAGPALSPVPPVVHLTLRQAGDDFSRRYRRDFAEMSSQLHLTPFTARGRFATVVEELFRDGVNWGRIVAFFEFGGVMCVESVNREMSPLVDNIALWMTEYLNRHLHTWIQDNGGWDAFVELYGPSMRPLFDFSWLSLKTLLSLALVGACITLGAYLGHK

For the molecule `CC1(C)CCC(CN2CCN(c3ccc(C(=O)NS(=O)(=O)c4ccc(NC[C@H]5CC[C@](C)(O)CC5)c([N+](=O)[O-])c4)c(Oc4cnc5[nH]ccc5c4)c3)CC2)=C(c2cc(-c3ccc(C(C)(C)O)cc3)cs2)C1` [Example 59, 2-((1H-pyrrolo[2,3-b]pyridin-5-yl)oxy)-N-((4-((((1r,4r)-4-hydroxy-4-methylcyclohexyl)methyl)amino)-3-nitrophenyl)sulfonyl)-4-(4-((2-(4-(4-(2-hydroxypropan-2-yl)phenyl)thiophen-2-yl)-4,4-dimethylcyclohex-1-en-1-yl)methyl)piperazin-1-yl)benzamide], the IC50 was 29.3 nM at Bcl-2 WT, 2 nM with MV-4-11 cells and 290 nM in the assay with RS4; 11Bcl-2-G101V cells.

For `CC1(C)CCC(CN2CCN(c3ccc(C(=O)NS(=O)(=O)c4ccc(NC[C@H]5CC[C@](C)(O)CC5)c([N+](=O)[O-])c4)c(Oc4cnc5[nH]ccc5c4)c3)CC2)=C(c2cc(-c3ccc(C(O)(C(F)(F)F)C(F)(F)F)cc3)cs2)C1` [Example 60, 2-((1H-pyrrolo[2,3-b]pyridin-5-yl)oxy)-4-(4-((2-(4-(4-(1,1,1,3,3,3-hexafluoro-2-hydroxypropan-2-yl)phenyl)thiophen-2-yl)-4,4-dimethylcyclohex-1-en-1-yl)methyl)piperazin-1-yl)-N-((4-((((1r,4r)-4-hydroxy-4-methylcyclohexyl)methyl)amino)-3-nitrophenyl)sulfonyl)benzamide], the values for the IC50 at Bcl-2 WT, with MV-4-11 cells and in the assay on RS4; 11Bcl-2-G101V cells were 20.4 nM, 303 nM and 3410 nM, respectively.

Regarding `CC1(C)CCC(CN2CCN(c3ccc(C(=O)NS(=O)(=O)c4ccc(NC[C@H]5CC[C@](C)(O)CC5)c([N+](=O)[O-])c4)c(Oc4cnc5[nH]ccc5c4)c3)CC2)=C(c2cc(-c3ccc(C(C)(C)O)cc3F)cs2)C1` [Example 62, 2-((1H-pyrrolo[2,3-b]pyridin-5-yl)oxy)-4-(4-((2-(4-(2-fluoro-4-(2-hydroxypropan-2-yl)phenyl)thiophen-2-yl)-4,4-dimethylcyclohex-1-en-1-yl)methyl)piperazin-1-yl)-N-((4-((((1r,4r)-4-hydroxy-4-methylcyclohexyl)methyl)amino)-3-nitrophenyl)sulfonyl)benzamide], the IC50 at Bcl-2 WT amounted to 15.7 nM; in the assay on MV-4-11 cells, 4 nM; in the assay with RS4; 11Bcl-2-G101V cells, 140 nM.

In the case of `CC1(C)CCC(CN2CCN(c3ccc(C(=O)NS(=O)(=O)c4ccc(NC[C@H]5COCCO5)c([N+](=O)[O-])c4)c(Oc4cnc5[nH]ccc5c4)c3)CC2)=C(c2cc(-c3c(F)cc(C(C)(C)O)cc3F)cs2)C1` [Example 64, (S)—N-((4-(((1,4-dioxan-2-yl)methyl)amino)-3-nitrophenyl)sulfonyl)-2-((1H-pyrrolo[2,3-b]pyridin-5-yl)oxy)-4-(4-((2-(4-(2,6-difluoro-4-(2-hydroxypropan-2-yl)phenyl)thiophen-2-yl)-4,4-dimethylcyclohex-1-en-1-yl)methyl)piperazin-1-yl)benzamide], the IC50 amounted to 16.4 nM on Bcl-2 WT, 7 nM with MV-4-11 cells and 30 nM with RS4; 11Bcl-2-G101V cells.

`CCC(O)(CC)c1cc(F)c(-c2csc(C3=C(CN4CCN(c5ccc(C(=O)NS(=O)(=O)c6ccc(NC[C@H]7CC[C@](C)(O)CC7)c([N+](=O)[O-])c6)c(Oc6cnc7[nH]ccc7c6)c5)CC4)CCC(C)(C)C3)c2)c(F)c1` [Example 67, 2-((1H-pyrrolo[2,3-b]pyridin-5-yl)oxy)-4-(4-((2-(4-(2,6-difluoro-4-(3-hydroxypentan-3-yl)phenyl)thiophen-2-yl)-4,4-dimethylcyclohex-1-en-1-yl)methyl)piperazin-1-yl)-N-((4-((((1r,4r)-4-hydroxy-4-methylcyclohexyl)methyl)amino)-3-nitrophenyl)sulfonyl)benzamide]: the IC50 at Bcl-2 WT came out at 27.2 nM; in the assay on MV-4-11 cells, 251 nM; in the assay on RS4; 11Bcl-2-G101V cells it was 840 nM.

With `[2H]C([2H])([2H])C(O)(c1cc(F)c(-c2csc(C3=C(CN4CCN(c5ccc(C(=O)NS(=O)(=O)c6ccc(NC[C@H]7CC[C@](C)(O)CC7)c([N+](=O)[O-])c6)c(Oc6cnc7[nH]ccc7c6)c5)CC4)CCC(C)(C)C3)c2)c(F)c1)C([2H])([2H])[2H]` [Example 68, 2-((1H-pyrrolo[2,3-b]pyridin-5-yl)oxy)-4-(4-((2-(4-(2,6-difluoro-4-(2-hydroxypropan-2-yl-1,1,1,3,3,3-d6)phenyl)thiophen-2-yl)-4,4-dimethylcyclohex-1-en-1-yl)methyl)piperazin-1-yl)-N-((4-((((1r,4r)-4-hydroxy-4-methylcyclohexyl)methyl)amino)-3-nitrophenyl)sulfonyl)benzamide], the IC50 on Bcl-2 WT was 23.2 nM; with MV-4-11 cells it was 9 nM; with RS4; 11Bcl-2-G101V cells it was 21 nM.

As to `CC1(C)CCC(CN2CCN(c3ccc(C(=O)NS(=O)(=O)c4ccc(NC[C@H]5CC[C@](C)(O)CC5)c([N+](=O)[O-])c4)c(Oc4cnc5[nH]ccc5c4)c3)CC2)=C(c2cc(-c3c(F)cc(C(C)(O)C4CC4)cc3F)cs2)C1` (stereo partly drawn) [Example 69, 2-((1H-pyrrolo[2,3-b]pyridin-5-yl)oxy)-4-(4-((2-(4-(4-(1-cyclopropyl-1-hydroxyethyl)-2,6-difluorophenyl)thiophen-2-yl)-4,4-dimethylcyclohex-1-en-1-yl)methyl)piperazin-1-yl)-N-((4-((((1r,4r)-4-hydroxy-4-methylcyclohexyl)methyl)amino)-3-nitrophenyl)sulfonyl)benzamide], the IC50 came out at 24.8 nM on Bcl-2 WT, 473 nM in the assay on MV-4-11 cells and 300 nM in the assay on RS4; 11Bcl-2-G101V cells.

`CC1(C)CCC(CN2CCN(c3ccc(C(=O)NS(=O)(=O)c4ccc(NC[C@H]5CC[C@](C)(O)CC5)c([N+](=O)[O-])c4)c(Oc4cnc5[nH]ccc5c4)c3)CC2)=C(c2cc(-c3cccc(C(C)(C)O)c3)cs2)C1` [Example 70, 2-((1H-pyrrolo[2,3-b]pyridin-5-yl)oxy)-N-((4-((((1r,4r)-4-hydroxy-4-methylcyclohexyl)methyl)amino)-3-nitrophenyl)sulfonyl)-4-(4-((2-(4-(3-(2-hydroxypropan-2-yl)phenyl)thiophen-2-yl)-4,4-dimethylcyclohex-1-en-1-yl)methyl)piperazin-1-yl)benzamide]: the IC50 on Bcl-2 WT is 19.8 nM; in the assay on MV-4-11 cells it was 95 nM; in the assay with RS4; 11Bcl-2-G101V cells, 1460 nM.

Take `CC1(C)CCC(CN2CCN(c3ccc(C(=O)NS(=O)(=O)c4ccc(NC[C@H]5CC[C@](C)(O)CC5)c([N+](=O)[O-])c4)c(Oc4cnc5[nH]ccc5c4)c3)CC2)=C(c2cc(-c3ccc(C(C)(C)O)c(F)c3)cs2)C1` [Example 71, 2-((1H-pyrrolo[2,3-b]pyridin-5-yl)oxy)-4-(4-((2-(4-(3-fluoro-4-(2-hydroxypropan-2-yl)phenyl)thiophen-2-yl)-4,4-dimethylcyclohex-1-en-1-yl)methyl)piperazin-1-yl)-N-((4-((((1r,4r)-4-hydroxy-4-methylcyclohexyl)methyl)amino)-3-nitrophenyl)sulfonyl)benzamide]: the IC50 at Bcl-2 WT came to 15.4 nM; in the assay on MV-4-11 cells, 12 nM; with RS4; 11Bcl-2-G101V cells, 330 nM.

Consider `CC(CO)c1ccc(-c2csc(C3=C(CN4CCN(c5ccc(C(=O)NS(=O)(=O)c6ccc(NC[C@H]7CC[C@](C)(O)CC7)c([N+](=O)[O-])c6)c(Oc6cnc7[nH]ccc7c6)c5)CC4)CCC(C)(C)C3)c2)c(F)c1` (stereo partly drawn) [Example 72, 2-((1H-pyrrolo[2,3-b]pyridin-5-yl)oxy)-4-(4-((2-(4-(2-fluoro-4-(1-hydroxypropan-2-yl)phenyl)thiophen-2-yl)-4,4-dimethylcyclohex-1-en-1-yl)methyl)piperazin-1-yl)-N-((4-((((1r,4r)-4-hydroxy-4-methylcyclohexyl)methyl)amino)-3-nitrophenyl)sulfonyl)benzamide], for which the IC50 on Bcl-2 WT turned out to be 20.5 nM; with MV-4-11 cells, 12 nM; in the assay on RS4; 11Bcl-2-G101V cells, 440 nM.

For `CC(C)(O)Cc1ccc(-c2csc(C3=C(CN4CCN(c5ccc(C(=O)NS(=O)(=O)c6ccc(NC[C@H]7CC[C@](C)(O)CC7)c([N+](=O)[O-])c6)c(Oc6cnc7[nH]ccc7c6)c5)CC4)CCC(C)(C)C3)c2)c(F)c1` [Example 73, 2-((1H-pyrrolo[2,3-b]pyridin-5-yl)oxy)-4-(4-((2-(4-(2-fluoro-4-(2-hydroxy-2-methylpropyl)phenyl)thiophen-2-yl)-4,4-dimethylcyclohex-1-en-1-yl)methyl)piperazin-1-yl)-N-((4-((((1r,4r)-4-hydroxy-4-methylcyclohexyl)methyl)amino)-3-nitrophenyl)sulfonyl)benzamide], the IC50 on Bcl-2 WT is 23.7 nM; with MV-4-11 cells it was 8 nM; in the assay on RS4; 11Bcl-2-G101V cells, 490 nM.

Turning to `CC1(C)CCC(CN2CCN(c3ccc(C(=O)NS(=O)(=O)c4ccc(NC[C@H]5CC[C@](C)(O)CC5)c([N+](=O)[O-])c4)c(Oc4cnc5[nH]ccc5c4)c3)CC2)=C(c2cc(-c3c(F)cc(C(C)(C)CO)cc3F)cs2)C1` [Example 74, 2-((1H-pyrrolo[2,3-b]pyridin-5-yl)oxy)-4-(4-((2-(4-(2,6-difluoro-4-(1-hydroxy-2-methylpropan-2-yl)phenyl)thiophen-2-yl)-4,4-dimethylcyclohex-1-en-1-yl)methyl)piperazin-1-yl)-N-((4-((((1r,4r)-4-hydroxy-4-methylcyclohexyl)methyl)amino)-3-nitrophenyl)sulfonyl)benzamide], the IC50 on Bcl-2 WT was found to be 38.5 nM; in the assay on MV-4-11 cells, 52 nM; with RS4; 11Bcl-2-G101V cells it was 230 nM.
